Experimental data reported in patent US20110092433A1, “FGF9-RELATED METHODS FOR TREATING ANXIETY” (THE BOARD OF TRUSTEES OF THE LELAND STANFORD JUNIOR …, priority 2007, published 2011).

How the values were obtained:
Rodents [1] = assay: Forced swim test (FST) after microinjection; format: in vivo; details: acute microinjection, versus controls
Excerpt: (§1) This is also in the same direction as the FGF2 data, consistent with the fact that both FGF2 and NCAM interact with the FGF receptor.
(§2) These observations are nevertheless consistent with the conclusions drawn from the microinjection studies above.

Rodents [2] = assay: Elevated plus maze (EPM) after microinjection; format: in vivo; details: for time in the center quadrant of EPM / time in the closed arms of EPM / time in the open arms of EPM: acute microinjection, versus controls
Excerpt: as §1, §2

Sprague-Dawley rats [3] = assay: Morris water maze in adults after early postnatal FGF2; format: in vivo, rat; details: FGF2 20 ng/g s.c. the day after birth, tested as adults
Experimental: (§3) Methods. Sprague-Dawley rats were injected with either vehicle or FGF2 (20 ng/g, s.c.) the day after birth and sacrificed after Morris water maze testing as adults. We assessed changes in gene expression using both a candidate approach and a gene discovery approach with laser-capture microdissection of the dentate gyrus followed by microarray analyses.

[4] = system: FGFR2 and FGFR3 exon IIIc:IIIb splice variant ratio; assay: Real time RT-PCR of exon IIIc:IIIb splice variant ratio in frontal cortex; format: in vivo, rat; details: FGF2 5 ng/g i.p. every 48 hours for three weeks, NS or S group, P>0.1
Experimental: Animals. Twenty-four male Sprague-Dawley rats weighing 220-250g were ordered from Charles River (Wilmington, Mass.) and remained undisturbed for one week to acclimatize to housing conditions. The animals were housed in pairs on a 12 h light-dark cycle (lights on 6:00 A.M.) with food and water available ad libitum. All experiments were conducted in accordance with the NIH Guide for the Care and Use of Animals and the University Committee on the Use and Care of Animals.
FGF2 injection treatments and chronic unpredictable stress (CUS) conditions. […]
Total RNA extraction. […] Using the Bioanalyzer's concentration readings, the samples were normalized to 25 ng/μL of total RNA per subject and stored at −80° C.
cDNA synthesis. cDNA was synthesized using the iScript cDNA Synthesis Kit (Bio-Rad, Hercules, Calif.). […] The double-stranded cDNA solutions were then analyzed for quality and concentration using Invitrogen's Quant-iT PicoGreen dsDNA kit. […] The fluorescently labeled samples were analyzed with a 1420 Victor^2 Multilabel Counter (EG&G Wallac, Wellesley, Mass.) using the basic Fluorescein protocol. […]
Real time RT-PCR primer design. […] Exon sequences were analyzed using NCBI's nucleotide and protein BLAST and were matched with their corresponding protein products within the receptor structures (FIG. 11). […]

Sprague-Dawley rats [5] = assay: Forced swim testing after chronic FGF2; format: in vivo, rat; details: chronic FGF2 administration
Experimental: FGF2 injection treatments and chronic unpredictable stress (CUS) conditions. Half of the rats (n=12) were administered vehicle (0.1M PBS with 100 μg/mL bovine serum albumin), and the other half (n=12) were administered human recombinant FGF2 dissolved in vehicle in 5 ng/g dosages (Sigma, St. Louis, Mo.) every 48 hours for three weeks. All treatments were injected intra-peritonealy. During the same three week period as the FGF2 treatments, the vehicle group was either handled (n=6) or exposed to CUS (n=6). Likewise, the FGF2 injected group was either handled (n=6) or exposed to CUS (n=6). The animals were exposed to the following chronic unpredictable stressors (described in Isgor et al. (2004)): ether (30 s), cold (2 h), noise (15 m), isolation (24 h), or restraint (2 h). The stressors were randomized to avoid habituation; sessions occurred once each day in either the morning or afternoon. The 2×2 (condition by treatment) design divided the subjects into nonstressed/vehicle (NS/V), nonstressed/FGF2 injection (NS/F), stressed/vehicle (S/V), and stressed/FGF2 injection (S/F) groups.
Forced swim testing. To test for possible FGF2 injection effects on anti-depressant behavior for other studies, all animals were subjected to forced swim testing according to Lucki (1997) 24 h after the termination of the FGF2 treatments and CUS conditions.

[6] = system: hippocampal gene expression; assay: Hippocampal gene expression in adults after early postnatal FGF2 (histochemical and RNA expression assays); format: in vivo, rat; details: adult rats, FGF2 20 ng/g s.c. the day after birth
Experimental: as §3

rats = assay: Elevated plus-maze (EPM) and light-dark (LD) anxiety test after chronic FGF2; format: in vivo, rat; details: FGF2 5 ng/g i.p. every 48 hours for 3 weeks
Experimental: Anxiety disorders have a high comorbidity with other neuropsychiatric disorders including Major Depression (MD). […] Rats were placed into “high anxiety” (LR) or “low anxiety” (HR) groups based on their behavior in a variety of motor and behavioral tests. Both groups of animals were administered either FGF2 (5 ng/g) or vehicle by intraperitoneal injection every 48 hours for 3 weeks. One day after the last FGF2 injection, all animals were tested in the elevated plus-maze (EPM) and light-dark (LD) anxiety test.
The apparatus for the EPM test is constructed of black Plexiglass with […] (70 cm from the floor, 45 cm long, and 12 cm wide). Illumination is provided by a 40-watt desk lamp facing a wall and placed behind one of the closed arms. The scientists put the animal inside the system. Animals that are less anxious spend more time in the open arms whereas animals that are more anxious spend less time in the open arms.
The LD test is conducted in a 30×60×30-cm Plexiglas shuttle box with a translucent cover. Each box is divided into two equal-sized compartments by a wall with a 12 cm-wide open door. One compartment is painted white and brightly illuminated, and the other is painted black with very dim light. The time each rat spends in each compartment is monitored by rows of five photocells located 2.5 cm above the grid floor of each compartment. […]

| Substance | depression-like behavior (FST) (Rodents [1]) | immobility in FST (Rodents [1]) | time in the center quadrant of EPM (Rodents [2]) | time in the closed arms of EPM (Rodents [2]) | time in the open arms of EPM (Rodents [2]) | swimming in FST (Rodents [1]) | also measured |
| --- | --- | --- | --- | --- | --- | --- | --- |
| EVYVVAENQQGKSKA [NCAM] | less depression-like behavior | less immobility | significantly less time | more time (although not signficantly more time) | less time |  |  |
| FGF2: human recombinant FGF2 (Sigma), fibroblast growth factor 2 | less depression-like behavior | less immobility |  | significantly more time | less time | more swimming | time to find a hidden platform in Morris Water maze test (average) (Sprague-Dawley rats [3]): 20 s; performance in learning and memory tests (Sprague-Dawley rats [3]; versus vehicle): significantly better; effect on exon IIIc:IIIb ratio [4]: did not alter; depression-like behavior (Sprague-Dawley rats [5]): decreases depression-like behavior; expression of CCK [6]: increased; expression of GAP-43 [6]: increased; expression of NCAM [6]: decreased; expression of Rgs4 [6]: increased; expression of SST [6]: increased; expression of Vgf [6]: increased; expression of trkB [6]: increased; anxiety versus vehicle (rats): less anxious; anxiety-reducing effects in innately more anxious (LR) rats (rats; LR versus HR): more pronounced; anxiety-like behavior (EPM) (Rodents [2]; acute injection): increased |
| HFKDPKRLY [FGF system peptide inhibitor] | increased depression-like behavior | more immobility | significantly more time | less time | equal time | less swimming | climbing in FST (Rodents [1]): significantly less climbing |
